In patent US9962623B2, “Process to remove product alcohols from fermentation broth” (BUTAMAX ADVANCED BIOFUELS LLC, priority 2011, dated 2018):

Tested on: yeast strain, Saccharomyces cerevisiae
Assay: Effect of disinfectant on cell viability
Assay type: cell-based
Settings: 5 mL cells mixed with 5 mL disinfectant solution
Experimental: A study was conducted to determine the effect of disinfectant on the viability of a yeast strain, Saccharomyces cerevisiae. The primary culture was prepared by incubating seed stock of the yeast in 10 mL tubes containing YPS media at 30° C. for 24 hours in an incubator shaker (Innova 4200, New Brunswick Scientific, Edison, N.J.). Klett flasks containing 50 mL broth were then inoculated with the aliquots of primary culture, and the flasks were incubated at 30° C. in an incubator shaker. The cells were grown until the Klett readings reached about 220. Dey-Engley neutralizing broth (DE broth) (Sigma-Aldrich Corp., St. Louis, Mo.) was used as the neutralizing dilution agent. […] Thin plates were also prepared with the DE broth/agar. […] Cells (5 mL) were mixed with 5 mL sterile PBS or 5 mL of the disinfectant solutions, and incubated for various time points (0.5, 1, 2.5, 5, or 10 minutes). […] After drying, the plates were inverted and incubated at 30° C. The black bar denotes the maximum detection limit of this test.

Measured: cell viability (cells counted on DE broth/agar plates)

CCO [70% alcohol, ethanol]
<10: 0.5 minutes incubation | 1 minute incubation | 2.5 minutes incubation | 5 minutes incubation | 10 minutes incubation
